PubChem BioAssay AID1259407 (Chemical Carcinogenesis Research Information System (CCRIS), 2018)
Activity calls are given as the source filed them. No rule for the calls is given here.

System: CCRIS mutagenicity, Ames/micronucleus/aberration tests
Experiment: CCRIS mutagenicity studies
[1] = Test System: AMES SALMONELLA TYPHIMURIUM, Strain/Indicator: TA100, Metabolic Activation: NONE, Method: PREINCUBATION
[2] = Test System: AMES SALMONELLA TYPHIMURIUM, Strain/Indicator: TA98, Metabolic Activation: NONE, Method: PREINCUBATION
[3] = Test System: AMES SALMONELLA TYPHIMURIUM, Strain/Indicator: TA98, Metabolic Activation: NONE, Method: STANDARD PLATE
[4] = Test System: AMES SALMONELLA TYPHIMURIUM, Strain/Indicator: TA98, Metabolic Activation: RAT, LIVER, S-9, AROCLOR 1254, Method: STANDARD PLATE
[5] = Test System: AMES SALMONELLA TYPHIMURIUM, Strain/Indicator: TA100, Metabolic Activation: NONE, Method: STANDARD PLATE
[6] = Test System: AMES SALMONELLA TYPHIMURIUM, Strain/Indicator: TA100, Metabolic Activation: RAT, LIVER, S-9, AROCLOR 1254, Method: STANDARD PLATE
[7] = Test System: AMES SALMONELLA TYPHIMURIUM, Strain/Indicator: TA1535, Metabolic Activation: NONE, Method: PREINCUBATION
[8] = Test System: AMES SALMONELLA TYPHIMURIUM, Strain/Indicator: TA1535, Metabolic Activation: NONE, Method: STANDARD PLATE
[9] = Test System: AMES SALMONELLA TYPHIMURIUM, Strain/Indicator: TA1535, Metabolic Activation: RAT, LIVER, S-9, AROCLOR 1254, Method: STANDARD PLATE
[10] = Test System: AMES SALMONELLA TYPHIMURIUM, Strain/Indicator: TA1537, Metabolic Activation: NONE, Method: STANDARD PLATE
[11] = Test System: AMES SALMONELLA TYPHIMURIUM, Strain/Indicator: TA1537, Metabolic Activation: RAT, LIVER, S-9, AROCLOR 1254, Method: STANDARD PLATE
[12] = Test System: AMES SALMONELLA TYPHIMURIUM, Strain/Indicator: TA1538, Metabolic Activation: NONE, Method: STANDARD PLATE
[13] = Test System: AMES SALMONELLA TYPHIMURIUM, Strain/Indicator: TA1538, Metabolic Activation: RAT, LIVER, S-9, AROCLOR 1254, Method: STANDARD PLATE

Row | Structure (SMILES) | mutagenic call [1] | mutagenic call [2] | mutagenic call [3] | mutagenic call [4] | mutagenic call [5] | mutagenic call [6] | mutagenic call [7] | mutagenic call [8] | mutagenic call [9] | mutagenic call [10] | mutagenic call [11] | mutagenic call [12] | mutagenic call [13] | other results
1 | COC(=O)[C@@]12Oc3ccc(-c4ccc5c(c4O)C(O)=C4C(=O)C[C@H](C)[C@@H](O)[C@]4(C(=O)OC)O5)c(O)c3C(O)=C1C(=O)C[C@H](C)[C@H]2O | inactive; negative |  |  |  |  |  |  |  |  |  |  |  |  | mutagenic call (Test System: AMES SALMONELLA TYPHIMURIUM, Strain/Indicator: TA100, Metabolic Activation: RAT, LIVER, S-9, PHENOBARBITAL, Method: PREINCUBATION): inactive; negative
2 | CC(=O)O[C@]1(C(C)=O)CC[C@H]2[C@@H]3C[C@H](C)C4=CC(=O)CC[C@]4(C)[C@H]3CC[C@@]21C | inactive; negative | inactive; negative | inactive; negative | inactive; negative | inactive; negative | inactive; negative | inactive; negative | inactive; negative | inactive; negative | inactive; negative | inactive; negative | inactive; negative | inactive; negative | mutagenic call (Test System: AMES SALMONELLA TYPHIMURIUM, Strain/Indicator: TA97, Metabolic Activation: HAMSTER, LIVER, S-9, AROCLOR 1254 (10 OR 30%), Method: PREINCUBATION): inactive; negative; mutagenic call (Test System: AMES SALMONELLA TYPHIMURIUM, Strain/Indicator: TA97, Metabolic Activation: NONE, Method: PREINCUBATION): inactive; negative; mutagenic call (Test System: AMES SALMONELLA TYPHIMURIUM, Strain/Indicator: TA97, Metabolic Activation: RAT, LIVER, S-9, AROCLOR 1254 (10 OR 30%), Method: PREINCUBATION): inactive; negative; mutagenic call (Test System: AMES SALMONELLA TYPHIMURIUM, Strain/Indicator: TA98, Metabolic Activation: HAMSTER, LIVER, S-9, AROCLOR 1254 (10 OR 30%), Method: PREINCUBATION): inactive; negative; mutagenic call (Test System: AMES SALMONELLA TYPHIMURIUM, Strain/Indicator: TA98, Metabolic Activation: RAT, LIVER, S-9, AROCLOR 1254 (10 OR 30%), Method: PREINCUBATION): inactive; negative; mutagenic call (Test System: AMES SALMONELLA TYPHIMURIUM, Strain/Indicator: TA100, Metabolic Activation: HAMSTER, LIVER, S-9, AROCLOR 1254 (10 OR 30%), Method: PREINCUBATION): inactive; negative; mutagenic call (Test System: AMES SALMONELLA TYPHIMURIUM, Strain/Indicator: TA100, Metabolic Activation: RAT, LIVER, S-9, AROCLOR 1254 (10 OR 30%), Method: PREINCUBATION): inactive; negative; mutagenic call (Test System: AMES SALMONELLA TYPHIMURIUM, Strain/Indicator: TA1535, Metabolic Activation: HAMSTER, LIVER, S-9, AROCLOR 1254 (10 OR 30%), Method: PREINCUBATION): inactive; negative; mutagenic call (Test System: AMES SALMONELLA TYPHIMURIUM, Strain/Indicator: TA1535, Metabolic Activation: RAT, LIVER, S-9, AROCLOR 1254 (10 OR 30%), Method: PREINCUBATION): inactive; negative; mutagenic call (Test System: CHINESE HAMSTER V-79, Strain/Indicator: V-79 (HGPRT)/6-THIOGUANINE, Metabolic Activation: NONE): inactive; negative; mutagenic call (Test System: CHINESE HAMSTER V-79, Strain/Indicator: V-79 (HGPRT)/6-THIOGUANINE, Metabolic Activation: RAT, LIVER, S-9, AROCLOR 1254): inactive; negative
3 | C=C(C)C(=O)OCCCCCCOC(=O)C(=C)C |  |  | inactive; negative | inactive; negative | inactive; negative | inactive; negative |  | inactive; negative | inactive; negative | inactive; negative | inactive; negative | inactive; negative | inactive; negative | mutagenic call (Test System: AMES SALMONELLA TYPHIMURIUM, Strain/Indicator: TA98, Metabolic Activation: RAT, LIVER, S-9, SODIUM PHENOBARBITAL, Method: STANDARD PLATE): inactive; negative; mutagenic call (Test System: AMES SALMONELLA TYPHIMURIUM, Strain/Indicator: TA100, Metabolic Activation: RAT, LIVER, S-9, SODIUM PHENOBARBITAL, Method: STANDARD PLATE): inactive; negative; mutagenic call (Test System: AMES SALMONELLA TYPHIMURIUM, Strain/Indicator: TA1535, Metabolic Activation: RAT, LIVER, S-9, SODIUM PHENOBARBITAL, Method: STANDARD PLATE): inactive; negative; mutagenic call (Test System: AMES SALMONELLA TYPHIMURIUM, Strain/Indicator: TA1537, Metabolic Activation: RAT, LIVER, S-9, SODIUM PHENOBARBITAL, Method: STANDARD PLATE): inactive; negative; mutagenic call (Test System: AMES SALMONELLA TYPHIMURIUM, Strain/Indicator: TA1538, Metabolic Activation: RAT, LIVER, S-9, SODIUM PHENOBARBITAL, Method: STANDARD PLATE): inactive; negative
4 | C=CCc1ccc(OC)cc1 | inactive; negative | inactive; negative | inactive; negative | inactive; negative | inactive; negative | inactive; negative | inactive; negative | inactive; negative | inactive; negative | inactive; negative | inactive; negative | inactive; negative | inactive; negative | mutagenic call (Test System: AMES SALMONELLA TYPHIMURIUM, Strain/Indicator: TA98, Metabolic Activation: HAMSTER, LIVER, S-9, AROCLOR 1254 (10%), Method: PREINCUBATION): inactive; negative; mutagenic call (Test System: AMES SALMONELLA TYPHIMURIUM, Strain/Indicator: TA98, Metabolic Activation: RAT, LIVER, S-9, AROCLOR 1254 (10%), Method: PREINCUBATION): inactive; negative; mutagenic call (Test System: AMES SALMONELLA TYPHIMURIUM, Strain/Indicator: TA100, Metabolic Activation: HAMSTER, LIVER, S-9, AROCLOR 1254 (10%), Method: PREINCUBATION): inactive; negative; mutagenic call (Test System: AMES SALMONELLA TYPHIMURIUM, Strain/Indicator: TA100, Metabolic Activation: RAT, LIVER, S-9, AROCLOR 1254 (10%), Method: PREINCUBATION): inactive; negative; mutagenic call (Test System: AMES SALMONELLA TYPHIMURIUM, Strain/Indicator: TA1535, Metabolic Activation: HAMSTER, LIVER, S-9, AROCLOR 1254 (10%), Method: PREINCUBATION): inactive; negative; mutagenic call (Test System: AMES SALMONELLA TYPHIMURIUM, Strain/Indicator: TA1535, Metabolic Activation: PAPS, Method: STANDARD PLATE): inactive; negative; mutagenic call (Test System: AMES SALMONELLA TYPHIMURIUM, Strain/Indicator: TA1535, Metabolic Activation: RAT, LIVER, S-9, AROCLOR 1254 (10%), Method: PREINCUBATION): inactive; negative; mutagenic call (Test System: AMES SALMONELLA TYPHIMURIUM, Strain/Indicator: TA1535, Metabolic Activation: RAT, LIVER, S-9, AROCLOR 1254, PAPS, Method: STANDARD PLATE): active; positive; mutagenic call (Test System: AMES SALMONELLA TYPHIMURIUM, Strain/Indicator: TA1537, Metabolic Activation: HAMSTER, LIVER, S-9, AROCLOR 1254 (10%), Method: PREINCUBATION): inactive; negative; mutagenic call (Test System: AMES SALMONELLA TYPHIMURIUM, Strain/Indicator: TA1537, Metabolic Activation: NONE, Method: PREINCUBATION): inactive; negative; mutagenic call (Test System: AMES SALMONELLA TYPHIMURIUM, Strain/Indicator: TA1537, Metabolic Activation: RAT, LIVER, S-9, AROCLOR 1254 (10%), Method: PREINCUBATION): inactive; negative; mutagenic call (Test System: UDS RAT HEPATOCYTES, Strain/Indicator: THY INCORP, Metabolic Activation: NONE, Method: IN VITRO): active; positive; mutagenic call (Test System: UDS RAT HEPATOCYTES, Strain/Indicator: THY INCORP, Metabolic Activation: NONE, Method: IN VIVO): active; positive
5 | CCC(O)/C=C/C=O (centres undefined) |  |  |  |  |  |  |  |  |  |  |  |  |  | mutagenic call (End Point: IN VITRO CHROMOSOMAL ABERRATIONS, Test System: RAT HEPATOCYTES, Metabolic Activation: NONE): active; positive; mutagenic call (End Point: IN VITRO MICRONUCLEUS, Test System: RAT HEPATOCYTES, Metabolic Activation: NONE): active; positive
